Assay results as given in patent US20260199324A1, “METHOD OF TREATING BREAST CANCER” (Arvinas Operations, Inc., priority 2022, published 2026).
Counter-ions that a name gives are not always drawn.

Tests used:
[1] = Safety and tolerability (TEAEs, clinical laboratory tests, vital signs, ECGs) in the Phase 1 drug-drug interaction study; format: in vivo, human; conditions: for number of all-causality adverse events (AEs): 24 participants
Description: This was a Phase 1, open-label, 2-period, fixed-sequence study to estimate the effect of a single oral dose of Compound A on the PK of a P-gp substrate, dabigatran etexilate (as mesylate), in healthy male participants and female participants with nonchildbearing potential.
On Period 1 Day 1, a standard breakfast (approximately 700 calories with a fat content of approximately 35%) was provided prior to dosing. The standard breakfast was required to be completely consumed within an approximately 20-minute period. A single dose of 75 mg dabigatran etexilate (as mesylate) (as 1 capsule of 75 mg) was administered approximately 2 hrs (120 mins) after starting the standard breakfast. To adequately remove any drug effects of dabigatran, a minimum washout period of 4 days was required after dabigatran etexilate (as mesylate) administration on Period 1 Day 1. Serial PK samples were collected up to 48 hrs after single dose administration to determine dabigatran PK parameters (total).
On Period 2 Day 1, a standard breakfast (approximately 700 calories with a fat content of approximately 35%) was provided prior to Compound A and dabigatran etexilate (as mesylate) dosing. The standard breakfast was required to be the same as provided in Period 1 Day 1 and was required to be completely consumed within an approximately 20-minute period. A single dose of 200 mg Compound A (as 2 tablets of 100 mg) was administered approximately 10 mins after the completion of the breakfast. A single dose of 75 mg dabigatran etexilate
(as mesylate) (as 1 capsule of 75 mg) was administered approximately 1.5 hour (90 mins) after the start of Compound A dosing, which was approximately 2 hrs (120 mins) after the start of the breakfast. Serial PK samples were collected up to 48 hrs post dabigatran etexilate (as mesylate) dosing to determine the single dose PK parameters of Compound A and dabigatran (total) • Masking: No masking (open label) • Enrollment number: 24
Compound A co-administered with dabigatran etexilate mesylate was the test treatment. All safety analyses were performed on the safety analysis set. Safety data were presented in tabular and/or graphical format and summarized descriptively, where appropriate in accordance with the Clinical Data Interchange Standards Consortium Standards […].

[2] = Preclinical exposure of epimer Compound B compared to Compound A; format: in vivo; conditions: preclinical data; Compound B formed by interconversion (epimer) of Compound A
ER = biological target: T1, ER (Homo sapiens, UniProt P03372); experiment: ER degradation; format: cell-based
T1 sequence (P03372 1-595): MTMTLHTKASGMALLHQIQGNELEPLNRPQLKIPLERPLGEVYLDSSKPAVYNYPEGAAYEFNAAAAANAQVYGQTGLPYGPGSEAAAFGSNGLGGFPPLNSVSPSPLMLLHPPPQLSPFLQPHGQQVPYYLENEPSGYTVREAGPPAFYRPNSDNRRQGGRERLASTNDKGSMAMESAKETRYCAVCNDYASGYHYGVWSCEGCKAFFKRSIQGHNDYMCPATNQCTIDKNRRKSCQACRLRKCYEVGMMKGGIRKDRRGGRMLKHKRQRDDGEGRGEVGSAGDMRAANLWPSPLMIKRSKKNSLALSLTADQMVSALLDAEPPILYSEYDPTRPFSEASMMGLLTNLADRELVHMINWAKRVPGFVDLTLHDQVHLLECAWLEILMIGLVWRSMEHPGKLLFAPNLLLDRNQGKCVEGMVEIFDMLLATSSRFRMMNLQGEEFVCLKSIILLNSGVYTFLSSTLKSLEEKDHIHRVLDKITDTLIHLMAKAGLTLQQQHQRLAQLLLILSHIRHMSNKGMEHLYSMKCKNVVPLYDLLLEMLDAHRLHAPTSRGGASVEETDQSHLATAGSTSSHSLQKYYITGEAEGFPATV

[3] = system: ER-dependent transcription; experiment: Antagonism of ER-dependent transcription; format: cell-based
P-gp = biological target: T2, P-gp (Homo sapiens, UniProt P08183); experiment: Phase 1 open-label fixed-sequence 2-period drug-drug interaction study: effect of single oral dose of Compound A on PK of dabigatran (P-gp probe substrate); format: in vivo; conditions: co-administration of Compound A with dabigatran in healthy participants
T2 construct: from tissue; host or cells: intestine of healthy human participants (in vivo)
Description: Compound A was investigated in an interventional, Phase 1, open-label, fixed sequence, 2-period study to evaluate the effect of a single oral dose of Compound A on the PK of dabigatran in healthy participants.
The objective of this drug-drug interaction study was to evaluate the impact of Compound A on the PK of dabigatran etexilate (a model substrate for P-gp) in healthy adults (NCT05673889)
All participants in this study received one dose of dabigatran etexilate mesylate alone by mouth in Period 1. In Period 2, everyone received one dose of dabigatran etexilate mesylate by mouth approximately 90 mins after receiving one dose of Compound A by mouth. The levels of dabigatran in Period I were compared to the levels of dabigatran in Period 2. This study design was used to determine if and how Compound A affects dabigatran absorption into the body in healthy adults.
This was a Phase 1, open-label, 2-period, fixed-sequence study to estimate the effect of a single oral dose of Compound A on the PK of a P-gp substrate, dabigatran etexilate (as mesylate), in healthy male participants and female participants with nonchildbearing potential. […]
Natural log transformed parameters (AUCinf [if data permitted], AUClast, and Cmax) of total dabigatran were analyzed using a mixed effect model with treatment as a fixed effect and participant as a random effect. […]

[4] = Biopharmaceutics Classification System class; format: physicochemical; conditions: low solubility/low permeability
[5] = dabigatran etexilate mesylate 75 mg alone
[6] = dabigatran etexilate mesylate 75 mg alone, considered treatment related
[7] = dabigatran etexilate mesylate 75 mg alone, not considered treatment related
[8] = single dose dabigatran etexilate mesylate 75 mg (Treatment Period 1)
[9] = Compound A 200 mg and dabigatran etexilate mesylate 75 mg, not considered treatment related
[10] = single dose Compound A 200 mg and dabigatran etexilate mesylate 75 mg
[11] = single dose Compound A 200 mg and dabigatran etexilate mesylate 75 mg (Treatment Period 2)

T2 sequence (P08183 whole entry): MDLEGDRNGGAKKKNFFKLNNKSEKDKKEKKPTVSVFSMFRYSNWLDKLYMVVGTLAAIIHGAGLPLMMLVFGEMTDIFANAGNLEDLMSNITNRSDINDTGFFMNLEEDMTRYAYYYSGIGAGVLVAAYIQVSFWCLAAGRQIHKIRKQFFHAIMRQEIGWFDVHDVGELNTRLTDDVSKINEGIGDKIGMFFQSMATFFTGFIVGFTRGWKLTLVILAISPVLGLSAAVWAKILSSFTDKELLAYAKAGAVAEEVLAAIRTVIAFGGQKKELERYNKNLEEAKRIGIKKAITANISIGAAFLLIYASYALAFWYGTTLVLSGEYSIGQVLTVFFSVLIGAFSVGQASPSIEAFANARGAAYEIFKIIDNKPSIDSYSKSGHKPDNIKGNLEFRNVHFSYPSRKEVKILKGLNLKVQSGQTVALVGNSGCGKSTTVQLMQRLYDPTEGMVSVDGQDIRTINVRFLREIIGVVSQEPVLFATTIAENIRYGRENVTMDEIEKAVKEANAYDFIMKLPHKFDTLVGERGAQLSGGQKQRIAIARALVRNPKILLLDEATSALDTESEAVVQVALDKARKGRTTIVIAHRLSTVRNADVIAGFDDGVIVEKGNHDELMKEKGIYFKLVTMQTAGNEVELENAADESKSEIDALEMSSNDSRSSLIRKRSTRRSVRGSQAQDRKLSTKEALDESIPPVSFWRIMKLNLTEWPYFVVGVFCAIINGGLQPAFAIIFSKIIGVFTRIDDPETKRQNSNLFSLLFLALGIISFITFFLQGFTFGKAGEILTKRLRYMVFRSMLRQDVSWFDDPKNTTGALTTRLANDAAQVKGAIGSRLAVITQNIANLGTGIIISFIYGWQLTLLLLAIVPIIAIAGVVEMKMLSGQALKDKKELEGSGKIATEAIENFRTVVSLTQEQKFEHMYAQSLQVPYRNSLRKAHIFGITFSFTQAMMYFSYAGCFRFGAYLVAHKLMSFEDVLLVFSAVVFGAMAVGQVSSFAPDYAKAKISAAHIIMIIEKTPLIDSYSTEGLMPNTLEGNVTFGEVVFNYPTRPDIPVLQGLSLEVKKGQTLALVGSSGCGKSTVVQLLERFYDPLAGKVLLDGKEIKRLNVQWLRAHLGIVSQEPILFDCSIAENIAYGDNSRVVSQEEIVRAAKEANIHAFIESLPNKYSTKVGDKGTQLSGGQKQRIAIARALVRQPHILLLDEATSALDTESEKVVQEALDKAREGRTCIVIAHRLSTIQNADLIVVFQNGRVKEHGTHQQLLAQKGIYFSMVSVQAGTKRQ

With `CCCCCCOC(=O)NC(=N)c1ccc(NCc2nc3cc(C(=O)N(CCC(=O)OCC)c4ccccn4)ccc3n2C)cc1` [dabigatran etexilate mesylate, β-Alanine, N-[[2-[[[4-[[[(hexyloxy)carbonyl]amino]iminomethyl]phenyl]amino]methyl]-1-methyl-1H-benzimidazol-5-yl]carbonyl]-N-2-pyridinyl-, ethyl ester] the “participants with mild AE of dry throat” value [1, 5] was 1 (4.2%) participants (%), the “participants with mild AE of lip dry” value [1, 5] was 1 (4.2%) participants (%) and the “participants with mild AE of diarrhea” value [1, 6] was 1 (4.2%) participants (%). The “participants with mild AE of dry skin” value [1, 6] was 1 (4.2%) participants (%), the “participants with mild AE of hot flush” value [1, 6] was 1 (4.2%) participants (%) and the “participants with mild AE of nausea” value [1, 6] was 1 (4.2%) participants (%). For the same molecule, the “participants with moderate AE of hematoma” value [1, 7] was 2 (8.3%) participants (%), the “participants with moderate AE of myalgia” value [1, 7] was 1 (4.2%) participants (%) and the “participants with Monocytes/Leukocytes >1.2× upper limit of normal (ULN)” value ([1]; single dose dabigatran etexilate mesylate 75 mg) was 2 (8.3%) participants (%). The “number of AEs considered treatment related” value [1, 8] was 4, the “participants with all-causality AEs (TEAEs)” value (from here on “participants … (TEAEs)”) [1, 8] was 6 (25.0%) participants (%) and the “participants with treatment related AEs” value [1, 8] was 3 (12.5%) participants (%). For the same molecule, the “number of all-causality adverse events (AEs)” value [1, 8] was 9.

With `O=C1CC[C@@H](N2Cc3cc(N4CCN(CC5CCN(c6ccc([C@@H]7c8ccc(O)cc8CC[C@@H]7c7ccccc7)cc6)CC5)CC4)ccc3C2=O)C(=O)N1` [Compound B] the “exposure of Compound B compared to Compound A” value [2] was under 26%, the “degradation of the ER” value (ER) was “does not degrade the ER” and the “antagonism of ER-dependent transcription compared to Compound A” value [3] was “similar”.

For `[H]/N=C(/N)c1ccc(NCc2nc3cc(C(=O)N(CCC(=O)O)c4ccccn4)ccc3n2C)cc1` [dabigatran, 3-[[2-[(4-carbamimidoylanilino)methyl]-1-methylbenzimidazole-5-carbonyl]-pyridin-2-ylamino]propanoic acid], the “participants … (TEAEs)” value [1, 8] was 6 (25.0%) participants (%) and the “participants with treatment related AEs” value [1, 8] was 3 (12.5%) participants (%).

For `O=C1CC[C@H](N2Cc3cc(N4CCN(CC5CCN(c6ccc([C@@H]7c8ccc(O)cc8CC[C@@H]7c7ccccc7)cc6)CC5)CC4)ccc3C2=O)C(=O)N1` [Compound A, (S)-3-(5-(4-((1-(4-((1R,2S)-6-hydroxy-2-phenyl-1,2,3,4-tetrahydronaphthalen-1-yl)phenyl)piperidin-4-yl)methyl)piperazin-1-yl)-1-oxoisoindolin-2-yl) piperidine-2,6-dione], the “P-gp inhibition (conclusion from increased dabigatran exposure)” value (P-gp) was “P-gp inhibitor”, the “participants with moderate AE of contusion” value ([1]; Compound A 200 mg and dabigatran etexilate mesylate 75 mg) was 1 (4.2%) participants (%) and the “participants with moderate AE of headache” value ([1]; Compound A 200 mg and dabigatran etexilate mesylate 75 mg, considered treatment related) was 1 (4.2%) participants (%). For the same molecule, the “participants with mild AE of contusion” value [1, 9] was 1 (4.2%) participants (%), the “participants with mild AE of oropharyngeal pain” value [1, 9] was 1 (4.2%) participants (%) and the “participants with mild AE of rhinorrhea” value [1, 9] was 1 (4.2%) participants (%). The “participants with mild AE of wound” value [1, 9] was 1 (4.2%) participants (%), the “participants with Leukocyte Esterase ≥1” value [1, 10] was 1 (4.2%) participants (%) and the “participants with Monocytes/Leukocytes >1.2×ULN” value [1, 10] was 2 (8.3%) participants (%). The “number of AEs considered treatment related” value [1, 11] was 1, the “participants … (TEAEs)” value [1, 11] was 6 (25.0%) participants (%) and the “number of all-causality adverse events (AEs)” value [1, 11] was 7. The “participants with treatment related AEs” value ([1]; single dose Compound A 200 mg and dabigatran etexilate mesylate 75 mg (Treatment Period 2), headache) was 1 (4.2%) participants (%) and the “Biopharmaceutics Classification System class” value [4] was “Class IV”.
